Values quoted from earlier work as cited in US8507276B2, “Tissue culture media used as a component of cosmetics” (La Prairie Group AG, priority 2003, dated 2013).
Like-named read-outs stand apart in the source and are kept apart here.

Compound	Polarity (nonpolar lipids)	Polarity (medium-polar lipids)	also measured
Octyl Cocoate [Estol 1540 EHC]	30.0 mN/m	–	–
CCCCCCCCOC(=O)OCCCCCCCC [Cetiol CC, Dicarpylyl Carbonate]	31.7 mN/m	–	–
Propylene Glycol Dicaprylate/Dicaprate [Miglyol 840]	–	–	Polarity (polar lipids): 18.7 mN/m
C12-13 Alkyl Lactate [Cosmacol ELI]	–	–	Polarity (polar lipids): 8.8 mN/m
Decyl Olivate [Lipodermanol OL]	40.3 mN/m	–	–
C12-15 Alkyl Benzoate [Finsolv TN]	–	21.8 mN/m	–
Caprylic/Capric Triglyceride [Miglyol 812]	–	21.3 mN/m	–
Cetearyl Isononanoate [Cetiol SN]	–	28.6 mN/m	–
